In patent US12427171B2, “Krill oil composition enriched in LPC-DHA and LPC-EPA” (Aker BioMarine Human Ingredients AS, priority 2020, dated 2025):

Assay: Mouse retinal fatty acid composition after daily gavage of free DHA, sn-1 DHA LPC or sn-2 DHA LPC for 30 days (GC/MS)
Type: in vivo
Conditions: 1 mg DHA daily by gavage
Description: Normal male mice (C57 BL/J6, 16-week-old) were gavaged daily with 1 mg DHA in the form of free DHA, sn-1 DHA LPC, or sn-2 DHA LPC in 80 μL corn oil for 30 days. Retinal FA composition was analyzed by GC/MS. Only the values for arachidonic acid and the omega-3 FA are shown here (mean±SD, 8 animals/group). […] SD: standard deviation; sn-1 and sn-2: stereospecific numbering 1 and 2 respectively; LPC: lysophosphatidylcholine; DHA: docosahexaenoic acid.
Animals and dietary treatments: All studies in animals described here were approved by the Institutional Animal Care and Use Committee of the University of Illinois at Chicago. The retina samples were obtained from our previous studies on the brain accretion of DHA in mice and rats, which were published previously. Male Sprague-Dawley rats (8-week-old) were purchased from Harlan laboratories (Indianapolis, IN, USA). Male C57 BL/J6 mice (2-4-months-old) were purchased from Jackson Laboratories (Bar Harbor. Maine).
In the first study, male Sprague-Dawley rats (n=5 per group, 8-week-old) were gavaged daily with 10 mg of DHA (40 mg DHA/kg body weight) in the form of TAG-DHA (DHASCO algal oil, DSM Nutritional Products, Columbia, MD, USA), synthetic di-DHA PC (phosphatidylcholine), or synthetic LPC-DHA (sn-1 acyl) for 30 days. The DHA was distributed equally among the three positions of TAG-DHA [17]. […] In the second study, 4-month-old male C57 BL/J6 mice (n=8 per group) were gavaged daily with 40 mg DHA/kg body weight in the form of free (unesterified) DHA, sn-1 acyl LPC-DHA, or sn-2 acyl LPC-DHA for 30 days as described previously. In the third study, male C57 BL/J6 mice (2-months-old, n=5 per group) were fed diets enriched with natural or lipase-treated fish oil or hill oil for 30 days. The total amount of omega-3 FA (eicosapentaenoic acid (EPA)+DHA) was 2.64 g/kg diet in all the diets. The untreated hill oil contained 18% of total omega-3 FA as LPC, whereas the lipase-treated hill oil contained >80% of the total omega-3 FA as LPC. The fish oil diets contained no LPC-EPA or LPC-DHA. The animals were trans-cardially perfused with ice cold phosphate buffered saline under anesthesia and the retinas were collected and kept frozen at −80° C. until the analysis.
Analytical procedures: The total lipids of retina were extracted by Bligh and Dyer procedure and the fatty acids were methylated using methanolic HCl. The fatty acid analysis was carried out by GC/MS (gas chromatography/mass spectroscopy) using Shimadzu QP2010SE equipped with Supelco Omegawax column, as described previously. Total ion current in the range of 50-400 m/z was used for quantification of the methyl esters. For LC/MS/MS (liquid chromatography/tandem mass spectroscopy) analysis, the lipids were extracted by the procedure of Ivanova et al.. The analysis of molecular species of phospholipids was performed on an ABSciex QTRAP mass spectrometer (Redwood City, CA, USA) coupled with Agilent 2600 UPLC system (Santa Clara, CA, USA), by multiple reaction monitoring. The internal standards 17:0 LPC, di 17:0 PC, and di 17:0 PE (phosphatidylethanolamine) were used for the quantification of the corresponding molecular species, without applying any correction factors for the differences in the ion intensity of different molecular species.
Statistics and correlations: The significance of differences between treatment groups was determined by a one-way ANOVA, with Tukey post-hoc multiple comparison corrections or unpaired t-test between control and treated samples adjusted with Holm-Sidak method (Graphpad Prism 8.0, San Diego, CA, USA).

Compound | fatty acid composition of mouse retina, 12:0, Mean ± S.D. | fatty acid composition of mouse retina, 14:0, Mean ± S.D. | fatty acid composition of mouse retina, 16:0, Mean ± S.D. | fatty acid composition of mouse retina, 16:0 DMA, Mean ± S.D. | fatty acid composition of mouse retina, 16:1 (n-7), Mean ± S.D. | fatty acid composition of mouse retina, 17:1 (n-7), Mean ± S.D. | fatty acid composition of mouse retina, 18:0, Mean ± S.D. | fatty acid composition of mouse retina, 18:0 DMA, Mean ± S.D. | fatty acid composition of mouse retina, 18:1(n-7), Mean ± S.D. | fatty acid composition of mouse retina, 18:1 (n-9), Mean ± S.D. | fatty acid composition of mouse retina, 18:1 DMA, Mean ± S.D. | fatty acid composition of mouse retina, 18:2 (n-6), Mean ± S.D. | fatty acid composition of mouse retina, 18:3 (n-3), Mean ± S.D. | fatty acid composition of mouse retina, 18:3 (n-6), Mean ± S.D. | fatty acid composition of mouse retina, 20:0, Mean ± S.D. | fatty acid composition of mouse retina, 20:1 (n-9), Mean ± S.D. | fatty acid composition of mouse retina, 20:2 (n-6), Mean ± S.D. | fatty acid composition of mouse retina, 20:3 (n-6), Mean ± S.D. | fatty acid composition of mouse retina, 20:4 (n-6), Mean ± S.D. | fatty acid composition of mouse retina, 20:5 (n-3), Mean ± S.D. | also measured
CC/C=C\C/C=C\C/C=C\C/C=C\C/C=C\C/C=C\CCC(=O)OC[C@@H](O)COP(=O)([O-])OCC[N+](C)(C)C [sn-1 DHA LPC] | 0.73 ± 0.47 | 0.30 ± 0.17 | 14.62 ± 1.22 | 1.02 ± 0.32 | 0.47 ± 0.34 | 0.48 ± 0.38 | 15.44 ± 1.50 | 1.96 ± 0.30 | 3.82 ± 0.62 | 15.56 ± 1.16 | 0.78 ± 0.64 | 1.38 ± 0.49 | 0.51 ± 0.42 | 0.60 ± 0.47 | 1.18 ± 0.72 | 2.87 ± 0.60 | 0.88 ± 0.95 | 1.44 ± 0.35 | 5.75 ± 0.71 | 1.91 ± 1.40 | fatty acid composition of mouse retina, 22:0, Mean ± S.D.: 1.24 ± 0.95; fatty acid composition of mouse retina, 22:2 (n-6), Mean ± S.D.: 1.00 ± 0.76; fatty acid composition of mouse retina, 22:4 (n-6), Mean ± S.D.: 2.23 ± 0.87; fatty acid composition of mouse retina, 22:5 (n-3), Mean ± S.D.: 0.79 ± 0.76; fatty acid composition of mouse retina, 22:6 (n-3), Mean ± S.D.: 22.57 ± 3.12; fatty acid composition of mouse retina, 24:1 (n-9), Mean ± S.D.: 0.49 ± 0.17
CC/C=C\C/C=C\C/C=C\C/C=C\C/C=C\C/C=C\CCC(=O)O[C@H](CO)COP(=O)([O-])OCC[N+](C)(C)C [sn-2 DHA LPC] | 0.73 ± 0.47 | 0.30 ± 0.17 | 14.62 ± 1.22 | 1.02 ± 0.32 | 0.47 ± 0.34 | 0.48 ± 0.38 | 15.44 ± 1.50 | 1.96 ± 0.30 | 3.82 ± 0.62 | 15.56 ± 1.16 | 0.78 ± 0.64 | 1.38 ± 0.49 | 0.51 ± 0.42 | 0.60 ± 0.47 | 1.18 ± 0.72 | 2.87 ± 0.60 | 0.88 ± 0.95 | 1.44 ± 0.35 | 5.75 ± 0.71 | 1.91 ± 1.40 | fatty acid composition of mouse retina, 22:0, Mean ± S.D.: 1.24 ± 0.95; fatty acid composition of mouse retina, 22:2 (n-6), Mean ± S.D.: 1.00 ± 0.76; fatty acid composition of mouse retina, 22:4 (n-6), Mean ± S.D.: 2.23 ± 0.87; fatty acid composition of mouse retina, 22:5 (n-3), Mean ± S.D.: 0.79 ± 0.76; fatty acid composition of mouse retina, 22:6 (n-3), Mean ± S.D.: 22.57 ± 3.12; fatty acid composition of mouse retina, 24:1 (n-9), Mean ± S.D.: 0.49 ± 0.17
